Measured values as given in patent US10968186B2, “Ascochlorin derivative and use thereof as AMPK activator” (priority 2016, dated 2021).
Converted amounts (≈) assume the structure as drawn. Like-named read-outs stand apart in the source and are kept apart here.

Legend:
[1] = Solubility in pH4.0 and pH7.4 phosphate buffer solution; format: physicochemical; settings: phosphate buffer (PBS), aqueous buffer, kinetic from dmso stock, 2 hr incubation, 25° C.
Procedure: 1) Preparation of Stock Solutions
Diclofenac was used as positive control in the assay.
2) Procedures for Solubility Determination
This study was performed in duplicate. […] The filtered samples were diluted with methanol.
3) Samples Analyzed by LC-MS/MS

[2] = Stability against human liver microsomes; format: in vitro ADME; settings: 2 μM compound
Procedure: (§1) Determination of Stability Against Mouse and Human Mirosomes
(§2) Pooled human liver microsomes (Cat. 452161; Lot. 23418) were purchased from Corning and pooled male mouse liver microsomes (Cat. M1000; Lot. 1210302) were purchased from Xenotech. Microsomes were stored at −80° C. prior to use. 40 μL of ultra-pure H2O was used instead of NADPH solution in the negative control. The negative control was used to exclude the misleading factor that was resulted from instability of chemical itself. Samples with NADPH were prepared in duplicate. Negative controls were prepared in singlet.
(§3) The reaction was started with the addition of 4 μL of 200 μM compound solution to each master solution to get the final concentration of 2 μM. Verapamil was used as positive control in the assay. Aliquots of 50 μL were taken from the reaction solution at 0, 15, 30, 45 and 60 min. The reaction was stopped by addition of 4 volumes of cold acetonitrile with IS (200 nM imipramine, 200 nM labetalol and 2 μM ketoprofen). Samples were centrifuged at 3,220 g for 40 minutes. Aliquot of […] of the supernatant was mixed with 90 μL of ultra-pure H2O and then was used for LC-MS/MS analysis. Results are shown in Table 3 by indicating remaining % of the test compound after 60 minutes incubation with liver microsomes from human and mouse in the presence of NADPH.

[3] = Stability against mouse liver microsomes; format: in vitro ADME; settings: mouse LM, 2 μM compound, 60 min, NADPH
Procedure: as §1, §2, §3

[4] = test system: A549; test: Anti-proliferative activity, CellTiterGlo assay, A549; format: cell-based; settings: Homo sapiens; A549, 96 hrs incubation; read-out: Antiproliferative activities IC50, A549
Procedure: (§4) The anti-proliferative activities of the compounds against 6 human cancer cell lines were determined by CellTiterGlo assay kit. All cells were obtained from ATCC and cultured as recommended by the vendor. Cells were assayed in exponential growth phase. Sample solution was prepared by 3-fold serial dilution from 30 mM stock for 10 doses in DMSO. Antiproliferative activities were measured by CellTiterGlo assay kit according to the protocol after cells were incubated for 96 hrs in a 37° C., 5% CO2 incubator.
(§5) On the 4th day of incubation, i) 15 μl reagent (CelltiterGlo assay kit) was added per well and plate was shaken (avoiding light) for 2 mins on a plate shaker, ii) the plate was kept (avoiding light) in room temperature for 30 min, and iii) the luminescence value was recorded by Multiplate reader.

[5] = test system: HT29; test: Anti-proliferative activity, CellTiterGlo assay, HT29; format: cell-based; settings: Homo sapiens, HT-29; HT29, 96 hrs incubation; read-out: Antiproliferative activities IC50, HT29
Procedure: as §4, §5

[6] = test system: BxPC-3; test: Anti-proliferative activity, CellTiterGlo assay, BxPC-3; format: cell-based; settings: Homo sapiens; BxPC-3, 96 hrs incubation; read-out: Antiproliferative activities IC50, BxPC-3
Procedure: as §4, §5

[7] = test system: LNCaP; test: Anti-proliferative activity, CellTiterGlo assay, LNCaP; format: cell-based; settings: Homo sapiens, 96 hrs incubation, read-out: Antiproliferative activities IC50, LNCaP
Procedure: as §4, §5

[8] = test system: MDA-MB-231; test: Anti-proliferative activity, CellTiterGlo assay, MDA-MB-231; format: cell-based; settings: Homo sapiens; MDA-MB-231, 96 hrs incubation; read-out: Antiproliferative activities IC50, MDA-MB-231
Procedure: as §4, §5

[9] = test system: U87-MG; test: Anti-proliferative activity, CellTiterGlo assay, U87-MG; format: cell-based; settings: Homo sapiens, U-87 MG, 96 hrs incubation, read-out: Antiproliferative activities IC50, U87-MG
Procedure: as §4, §5

[10] = test system: HFD-STZ C57BL/6J mice model; test: In vivo efficacy in HFD-STZ C57BL/6J mice model
Procedure: In Vivo Efficacy in HFD-STZ C57BL/6J Mice Model
Diet induced obesity model establishment:
C57BL/6J mice were fed with high fat diet (Research Diets, D12492) for 64 days, and streptozotocin (10 mg/kg) was given orally on day 22 and day 29. Compound treatment was done from day 36 to day 63.
Based on the animal's body weight and oral glucose tolerance test (OGTT) on week 5, mice were randomly assigned to respective groups using a computer-generated randomization procedure.
Blood glucose level was measured with the blood from tail vein every 2nd week by using Accu-Chek Aviva System.
Blood Chemistry Analysis:
Blood samples were obtained from collection on Day 49 and 65, the samples were immediately processed by centrifugation at 4° C., 4,000 g for 15 minutes, and then they were transferred into a new test tube. Lipid profile and full panel blood bio-chemistry parameters were measured by using TOSHIBA TBA-40FR automated biochemical analyzer.

[11] = pH 4.0 phosphate buffer solution, read-out: Solubility, pH 4.0 PBS
[12] = pH 7.4 phosphate buffer solution, read-out: Solubility, pH 7.4 PBS
[13] = OGTT assay, versus group treated with vehicle
[14] = once a day oral treatment for 28 days at 0.25 to 16 mg/kg

Row | SMILES | melting point [°C] | solubility at 2 h [1, 11] [µM] | solubility at 2 h [1, 12] [µM] | Liver microsome stability remaining % after 60 min incubation with NADPH, human LM [2] [%] | Liver microsome stability remaining % after 60 min incubation with NADPH, mouse LM [3] [%] | IC50 [4] [µM] | IC50 [5] [µM] | IC50 [6] [µM] | IC50 [7] [µM] | IC50 [8] [µM] | IC50 [9] [µM] | OGTT: blood glucose level after 2 hours of glucose administration, lower than control group [10, 13] [%] | OGTT: glucose AUC lower than control group [10, 13] [%] | decrease of HbA1C level [10, 14] [%] | decrease of blood glucose level [10, 14] [%]
1 | COc1c(Cl)c(C)c(C=O)c(O)c1C/C=C(C)/C=C/[C@@]1(C)[C@H](C)CC/C(=N\O)[C@@H]1C [Compound 2, 3-chloro-6-hydroxy-5-[(2E,4E)-5-[(1R,2R,3E,6R)-3-(hydroxyimino)-1,2,6-trimethylcyclohexyl]-3-methylpenta-2,4-dien-1-yl]-4-methoxy-2-methylbenzaldehyde] | 158 to 160 |  |  |  |  |  |  |  |  |  |  |  |  |  | 
2 | CO/N=C/c1c(C)c(Cl)c(OC)c(C/C=C(C)/C=C/[C@@]2(C)[C@H](C)CC/C(=N\OCCN3CCN(C)CC3)[C@@H]2C)c1O [Compound 17, 4-chloro-3-methoxy-6-[(1E)-(methoxyimino)methyl]-5-methyl-2-[(2E,4E)-3-methyl-5-[(1R,2R,3E,6R)-1,2,6-trimethyl-3-[[2-(4-methylpiperazin-1-yl)ethoxy]imino]cyclohexyl]penta-2,4-dien-1-yl]phenol] |  | 39 (≈ 23 µg/mL) | 0.04 (≈ 0.0236 µg/mL) | 76 | 55 | 6.8 | 5.2 | 1.7 | 4.1 | 5 | 4.5 |  |  |  | 
3 | CO/N=C/c1c(C)c(Cl)c(OC)c(C/C=C(C)/C=C/[C@@]2(C)[C@H](C)CC/C(=N\OCC(=O)O)[C@@H]2C)c1O [Compound 19, 2-([[(1E,2R,3R,4R)-3-[(1E,3E)-5-[3-chloro-6-hydroxy-2-methoxy-5-[(1E)-(methoxyimino)methyl]-4-methylphenyl]-3-methylpenta-1,3-dien-1-yl]-2,3,4-trimethylcyclohexylidene]amino]oxy)acetic Acid] |  | 148 (≈ 77.1 µg/mL) | 23.7 (≈ 12.3 µg/mL) | 94 | 89 | 22.3 | 22.5 | 17 | 14.6 | 47.4 | 20.4 | 30 | 25 | −31 | −68
4 | CCNC1CC[C@@H](C)[C@](C)(/C=C/C(C)=C/Cc2c(O)c(C=O)c(C)c(Cl)c2OC)[C@H]1C (stereo partly drawn) [Compound 20, 3-chloro-5-[(2E,4E)-5-[(1R,2R,6R)-3-(ethylamino)-1,2,6-trimethylcyclohexyl]-3-methylpenta-2,4-dien-1-yl]-6-hydroxy-4-methoxy-2-methylbenzaldehyde] |  | 186 (≈ 83.3 µg/mL) | 0.32 (≈ 0.143 µg/mL) |  |  | 4.8 | 2.7 | 2.3 | 1.9 | 4.1 | 2.3 |  |  |  | 
5 | CC(/C=C/[C@@]1(C)[C@H](C)CC/C(=N\O)[C@@H]1C)=C\Cc1c(O)c(/C=N/O)c(C)c(Cl)c1OCF [Compound 4, 4-chloro-3-(fluoromethoxy)-2-[(2E,4E)-5-[(1R,2R,3E,6R)-3-(hydroxyimino)-1,2,6-trimethylcyclohexyl]-3-methylpenta-2,4-dien-1-yl]-6-[(1E)-(hydroxyimino)methyl]-5-methylphenol] |  |  |  | 67 | 47 | 4.3 | 6.4 | 11.4 | 4.2 | 5.1 | 9.1 |  |  |  | 
6 | CC(/C=C/[C@@]1(C)[C@H](C)CCC(NC2CC2)[C@@H]1C)=C\Cc1c(O)c(C=O)c(C)c(Cl)c1OCF (stereo partly drawn) [Compound 13, 3-chloro-5-[(2E,4E)-5-[(1R,2R,6R)-3-(cyclopropylamino)-1,2,6-trimethylcyclohexyl]-3-methylpenta-2,4-dien-1-yl]-4-(fluoromethoxy)-6-hydroxy-2-methylbenzaldehyde] |  | 18 (≈ 8.6 µg/mL) | 0.01 (≈ 0.00478 µg/mL) |  |  | 2 | 3.6 | 2.2 | 0.8 | 5.3 | 3 |  |  |  | 
7 | COc1c(Cl)c(C)c(C=O)c(O)c1C/C=C(C)/C=C/[C@@]1(C)[C@H](C)CCC(NC2CC2)[C@@H]1C (stereo partly drawn) [Compound 22, 3-chloro-5-[(2E,4E)-5-[(1R,2R,6R)-3-(cyclopropylamino)-1,2,6-trimethylcyclohexyl]-3-methylpenta-2,4-dien-1-yl]-6-hydroxy-4-methoxy-2-methylbenzaldehyde] |  | 29 (≈ 13.3 µg/mL) | 0.01 (≈ 0.0046 µg/mL) |  |  | 1.9 | 3.8 | 2.7 | 1.1 | 6 | 3.2 |  |  |  | 
8 | COc1c(Cl)c(C)c(/C=N/O)c(O)c1C/C=C(C)/C=C/[C@@]1(C)[C@H](C)CCC(C)(O)[C@@H]1C (stereo partly drawn) [Compound 7, (E)-3-chloro-6-hydroxy-5-((2E,4E)-5-((1R,2R,6R)-3-hydroxy-1,2,3,6-tetramethylcyclohexyl)-3-methylpenta-2,4-dien-1-yl)-4-methoxy-2-methylbenzaldehyde oxime] |  |  |  | 71 | 71 | 6.5 | 10 | 12.8 | 7.2 | 6.8 | 13.1 |  |  |  | 
9 | CCNC1CC[C@@H](C)[C@](C)(/C=C/C(C)=C/Cc2c(O)c(/C=N/OC)c(C)c(Cl)c2OC)[C@H]1C (stereo partly drawn) [Compound 21, 4-chloro-2-[(2E,4E)-5-[(1R,2R,6R)-3-(ethylamino)-1,2,6-trimethylcyclohexyl]-3-methylpenta-2,4-dien-1-yl]-3-methoxy-6-[(1E)-(methoxyimino)methyl]-5-methylphenol] |  | 168 (≈ 80.2 µg/mL) | 0.003 (≈ 0.00143 µg/mL) | 100 | 80 | 5.3 | 5 | 1.7 | 3.8 | 4.3 | 3.1 |  |  |  | 
10 | CO/N=C/c1c(C)c(Cl)c(OC)c(C/C=C(C)/C=C/[C@@]2(C)[C@H](C)CC/C(=N\OCCN(C)C)[C@@H]2C)c1O [Compound 15, 4-chloro-2-[(2E,4E)-5-[(1R,2R,3E,6R)-3-[[2-(dimethylamino)ethoxy]imino]-1,2,6-trimethylcyclohexyl]-3-methylpenta-2,4-dien-1-yl]-3-methoxy-6-[(1E)-(methoxyimino)methyl]-5-methylphenol] |  | 54 (≈ 28.8 µg/mL) | 0.29 (≈ 0.155 µg/mL) | 88 | 79 | 6.7 | 7 | 1.7 | 4.2 | 4.8 | 4.4 |  |  |  | 
